Reference: patent US9198909B1, “Materials and methods for inhibiting mamalian S-nitrosoglutathione reductase” (Indiana University Research and Technology Corporation, priority 2007, dated 2015)

Tested on: mouse aorta segments
Test: Wire myography, relaxation of aortic rings
Procedure: Referring now to FIG. 5, mouse aorta segments were equilibrated in oxygenated PSS (95% O2 and 5% CO2) at 37° C. Following equilibration, 1 μM phenylephrine was added to each ring for submaximal contraction. After stabilization, increasing concentrations (10−9 M to 10−4 M) of either compound 8 or sodium nitroprusside (SNP) was added to the rings and the tone of the rings determined (B) Inhibition of compound 8 induced relaxation of aortal rings by nitric oxide synthase inhibitor, L-NAME. To pre-equilibrated and submaximally contracted aortal rings with phenylephrine (1 micromolar), LNAME (500 micromolar) was added to the bath and allowed to incubate for 30 minutes. […] Each experiment was performed using two rings from three different mice and the mean (±SEM) for each response determined.
Mice were anesthetized with diethyl ether. A thoracotomy was performed to expose thoracic and abdominal aorta. A 25 gauge syringe was inserted into the apex of left ventricle and perfused free of blood with oxygenated Krebs Henseleit buffer. The right atrium was cut to provide an exit for blood. The aorta was removed and cleaned of fat and adventitia. The aorta was cut into 2-mm-long segments and mounted on a four-channel wire myograph (AD Instruments). Vessel rings were maintained in 10-ml organ baths with oxygenated PSS (95% O2 and 5% CO2) at 37° C. Rings were allowed to equilibrate for 80 minutes with the buffer in each organ bath changed every 20 min. One gram pretension was placed on each aortic ring (appropriate starting tension for optimal vasomotor function as determined in previous experiments). An eight-channel octal bridge (Powerlab) and data-acquisition software (Chart version 5.2.2) were used to record all force measurements. After equilibration for 80 min, 1 μM 27 phenylephrine was added to each ring for submaximal contraction. After stabilization, either compound 8 or sodium nitroprusside (SNP) was added to the rings and the tone of the rings determined. For the determination of SNP and ACh dose-response relationships, aortic rings were precontracted with 10−6 M PE, and SNP or compound 8 was then added in increasing concentrations from 10−9 M to 10−4 M. In a subset of experiments, L-NAME was added (500 μM final) to the bath and allowed to incubate for 30 minutes. After 30 minutes, compound 8 was added and the tone of the rings determined as described above.

[1] = direct comparison with sodium nitroprusside

With N#Cc1ccccc1CSc1nc2ccsc2c(=O)n1Cc1ccc(C(=O)O)cc1 [Compound 8] the “time to begin relaxation” value was “around 3 minutes”, the “duration of sustained vessel relaxation” value (50 μM) was “up to 2 hours” and the “relaxation of the vessels” value (50 μM) was “completely relaxed”. For the same compound, the “time to complete relaxation” value (50 μM) was ≤ 15 min, the “inhibition of vasorelaxation by L-NAME preincubation” value (500 μM L-NAME for 30 minutes, then 50 μM compound 8) was “roughly 58%” and the “duration of the effect compared with SNP” value [1] was “much longer than with SNP”. For the same compound, the “potency at relaxing vascular smooth muscle compared with SNP” value [1] was “less potent than SNP” and the EC50 (rings precontracted with 1 μM phenylephrine, read-out: EC50 of vessel relaxation) was 5 µM.
